Source: publication PMC8066102, “Metabolic Profiles of New Unsymmetrical Bisacridine Antitumor Agents in Electrochemical and Enzymatic Noncellular Systems and in Tumor Cells” (Pharmaceuticals, 2021)

Tests used:
UGT2B15 = biological target: T1, UGT2B15 (Homo sapiens, UniProt P54855); assay: Modulation of UGT2B15 activity (TFK glucuronidation); format: in vitro ADME; settings: UGT2B15 isoenzyme preparation, pH 7.4, probe TFK, TFK substrate
T1 construct: purchased Corning, NY, USA (through DIAG-MED, Poland); host or cells: baculovirus-insect cells (Supersomes)
T1 sequence (P54855 24-530): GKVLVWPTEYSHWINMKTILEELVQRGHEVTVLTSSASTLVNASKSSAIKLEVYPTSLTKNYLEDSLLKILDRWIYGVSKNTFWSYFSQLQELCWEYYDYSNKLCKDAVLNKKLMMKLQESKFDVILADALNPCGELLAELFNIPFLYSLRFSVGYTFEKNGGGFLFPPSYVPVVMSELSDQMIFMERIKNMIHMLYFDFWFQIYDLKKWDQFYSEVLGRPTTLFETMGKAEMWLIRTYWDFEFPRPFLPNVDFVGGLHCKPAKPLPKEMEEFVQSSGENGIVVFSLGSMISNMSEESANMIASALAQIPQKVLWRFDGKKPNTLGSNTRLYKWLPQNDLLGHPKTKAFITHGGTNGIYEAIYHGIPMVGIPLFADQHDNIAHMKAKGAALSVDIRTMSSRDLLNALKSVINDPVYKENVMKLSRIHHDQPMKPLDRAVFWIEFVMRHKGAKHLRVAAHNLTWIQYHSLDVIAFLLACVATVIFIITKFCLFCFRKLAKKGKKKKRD
Description: (§1) Isoenzyme activity was studied by the rate measurement of β-hydroxylation of testosterone (specific substrate for P4503A4) and of glucuronidation of specific substrates, namely, SN-38 (UGT1A1), EPI (UGT2B7),) and TFK (UGT2B15). All substrate and drug solutions were prepared as 10 mM stock solutions in DMSO and were diluted in […] (pH 7.4). The mixture containing isoenzymes P4503A4/UGT (0.5 mg/mL), probe substrate (0.1 mM), cofactor 2 mM NADPH/5 mM UDPGA and the increasing concentrations of tested UA (0, 0.01, 0.02 and 0.05 mM) was incubated in the reaction buffer containing (i) for P4503A4 0.1 M HEPES, 88 mM MgCl2 and (ii) for UGT 0.1 M HEPES, 88 mM MgCl2, 25 μg/mL alamethicin at 37 °C for 30 min and were terminated by adding 8.75 µL of 0.1 M HCl. The samples were placed in ice for 10 min and centrifuged (10 min, 13,400 rpm). Supernatant fractions were analyzed by HPLC. For more accurate investigation of P4503A4 inhibition by C-2045 and C-2053 the β-hydroxylation rate was measured at various concentrations of testosterone: 0.02, 0.05, 0.1 and 0.2 mM. The inhibitor (UA) concentrations were 0, 0.001, 0.005 and 0.01 mM, whereas the incubation time 30 min and concentration of P4503A4 (0.5 mg/mL).

UGT2B7 = biological target: T2, UGT2B7 (Homo sapiens, UniProt P16662); assay: Modulation of UGT2B7 activity (epirubicin glucuronidation); format: in vitro ADME; settings: epirubicin substrate
T2 construct: purchased Corning, NY, USA (through DIAG-MED, Poland); host or cells: baculovirus-insect cells (Supersomes)
T2 sequence (P16662 24-529): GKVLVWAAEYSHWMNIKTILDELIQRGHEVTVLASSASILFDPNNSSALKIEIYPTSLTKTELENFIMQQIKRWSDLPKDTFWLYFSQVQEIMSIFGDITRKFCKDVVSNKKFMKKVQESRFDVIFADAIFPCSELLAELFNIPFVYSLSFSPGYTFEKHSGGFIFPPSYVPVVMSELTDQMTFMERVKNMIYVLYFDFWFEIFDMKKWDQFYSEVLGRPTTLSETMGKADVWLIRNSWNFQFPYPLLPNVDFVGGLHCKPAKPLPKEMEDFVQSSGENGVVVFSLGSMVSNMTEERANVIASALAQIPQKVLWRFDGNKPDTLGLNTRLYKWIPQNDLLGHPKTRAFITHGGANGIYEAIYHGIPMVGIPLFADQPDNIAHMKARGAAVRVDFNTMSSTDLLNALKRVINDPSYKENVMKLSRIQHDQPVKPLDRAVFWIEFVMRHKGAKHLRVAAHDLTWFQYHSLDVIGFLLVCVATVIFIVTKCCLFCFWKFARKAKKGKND
Description: as §1

HCT-116 cells = assay: Drug metabolism in HCT-116 colon tumor cells; format: cell-based, human; settings: HCT-116 (low UGT expression), 50 μM, medium and cell extract, up to 24 h
Description: (§2) To analyze the transformation products of UAs in colon tumor cell lines, HCT-116 or HT-29 cells were plated in 60 mm Petri dishes; after reaching 80% of confluence, cells were treated with 5/25/50 μM of C-2028, C-2045 or C-2053 (prepared as 10 or 2 mM stock solutions in water) for specified time. Half of medium was added to acetonitrile (1:1, v/v), centrifuged (12 min, 13,400 rpm, 4 °C) and the supernatant was analyzed by HPLC (post-culture medium). Cells remaining on the Petri dishes were collected by gentle scraping, sedimented, washed with ice-cold PBS, suspended in ice-cold chloroform and lysed by sonication for 15 min. After 1 h on ice, insoluble material was removed by centrifugation at 13,000 rpm for 20 min at 4 °C. The sediment was discarded and supernatant (chloroform) were evaporated under pressure. Then, sample was suspended in ice-cold 60% methanol and directly analyzed by HPLC (cell extract).

HCT-116-UGT1A10 cells = assay: Drug metabolism in HCT-116 cells transfected with UGT1A10; format: cell-based, human; settings: HCT-116 overexpressing UGT1A10, 50 μM, medium and cell extract, 24 and 72 h
Description: as §2

| Structure (SMILES) | inhibition at 30 min, 0.05 mM (UGT2B15; highest concentration) [%] | inhibition at 30 min (UGT2B15; lowest concentrations) [%] | decrease in the activity of UGT2B7 (UGT2B7; 0.01 mM and 0.02 mM compound) [%] | inhibition at 30 min, 0.05 mM (UGT2B7; human, UGT2B7 isoenzyme preparation, pH 7.4, probe epirubicin (EPI), 0.05 mM compound) [%] | metabolite formation in cells (HCT-116 cells) | metabolite formation in cells (HCT-116-UGT1A10 cells) |
| --- | --- | --- | --- | --- | --- | --- |
| CN(CCCNc1c2ccccc2nc2cccc([N+](=O)[O-])c12)CCCNc1ccc2ncn3c4ccccc4c(=O)c1c23 [C-2028] | 80 | ~30 | 60 | 90 | – | – |
| Cc1ccc([N+](=O)[O-])c2c(NCCCN(C)CCCNc3ccc4ncn5c6ccc(O)cc6c(=O)c3c45)c3ccccc3nc12 [C-2045] | – | – | – | – | No metabolite products were observed | metabolized the substrate to the derivative, which was found in the cell medium rather than in the cell extract |
